{"source": "patent US20080261891A1", "about": "“COMPOSITIONS AND METHODS FOR USING SYRINGOPEPTIN 25A AND RHAMNOLIPIDS” (Utah State University, priority 2007, published 2008)", "type_in_all_cases": "cell-based", "key": {"[1]": {"tested_on": "Aeromonas caviae", "assay": "MIC, microbroth dilution method", "conditions": "48 h", "protocol": "(§1) The MIC of the compounds for the organisms was determined by the microbroth dilution method, described hereafter. The microorganisms were prepared as described above and resuspended in their optimal growth media (Table 1) to ˜10^5 CFU/mL containing SP 25A at 2, 3, 4, 5, 6, 7, 8, 16, 32 and 50 μg/mL in a total volume of 550 μL. RL concentrations of 2, 3, 4, 5, 6, 7, 8, 16, 32 and 60 μg/mL in a total volume of 550 μL were tested in a 48-well plate (Corning, N.Y.). The plates were incubated at optimal growth conditions for the respective organism and monitored for an increase in OD600 after 48 h by a Perkin-Elmer (HTS 7000) plate reader (Downers Grove, Ill.). […] Negative controls (no inhibition of growth) were included using saline in the assay for each compound. The lowest concentration at which there was no increase in OD over 48 h was reported as the MIC. Each MIC was determined in replicate with three separate tests per replication. The results of the three tests were averaged for each replicate."}, "[2]": {"tested_on": "Bacillus cereus", "assay": "MIC, microbroth dilution method", "conditions": "48 h", "protocol": "as §1"}, "[3]": {"tested_on": "Bacillus megaterium", "assay": "MIC, microbroth dilution method", "conditions": "48 h", "protocol": "as §1"}, "[4]": {"tested_on": "Bacillus subtilis", "assay": "MIC, microbroth dilution method", "conditions": "48 h", "protocol": "as §1"}, "[5]": {"tested_on": "Citrobacter fruendii", "assay": "MIC, microbroth dilution method", "conditions": "48 h", "protocol": "as §1"}, "[6]": {"tested_on": "Clostridium sporogenes", "assay": "MIC, microbroth dilution method", "conditions": "48 h", "protocol": "as §1"}, "[7]": {"tested_on": "Enterobacter aerogenes", "assay": "MIC, microbroth dilution method", "conditions": "48 h", "protocol": "as §1"}, "[8]": {"tested_on": "Erwinia herbicola", "assay": "MIC, microbroth dilution method", "conditions": "48 h", "protocol": "as §1"}, "[9]": {"tested_on": "Eschereschia coli K12", "assay": "MIC, microbroth dilution method", "conditions": "48 h", "protocol": "as §1"}, "[10]": {"tested_on": "Flavobacterium devorans", "assay": "MIC, microbroth dilution method", "conditions": "48 h", "protocol": "as §1"}, "[11]": {"tested_on": "Klebsiella pneumoniae subsp. Pneumoniae", "assay": "MIC, microbroth dilution method", "conditions": "48 h", "protocol": "as §1"}, "[12]": {"tested_on": "Lactobacillus acidophilus", "assay": "MIC, microbroth dilution method", "conditions": "48 h", "protocol": "as §1"}, "[13]": {"tested_on": "Lactobacillus plantarum", "assay": "MIC, microbroth dilution method", "conditions": "48 h", "protocol": "as §1"}, "[14]": {"tested_on": "Lactococcus lactis subsp. Lactis", "assay": "MIC, microbroth dilution method", "conditions": "48 h", "protocol": "as §1"}, "[15]": {"tested_on": "Listeria innocua", "assay": "MIC, microbroth dilution method", "conditions": "48 h", "protocol": "as §1"}, "[16]": {"tested_on": "Micrococcus luteus", "assay": "MIC, microbroth dilution method", "conditions": "48 h", "protocol": "as §1"}, "[17]": {"tested_on": "Salmonella enteridis", "assay": "MIC, microbroth dilution method", "conditions": "48 h", "protocol": "as §1"}, "[18]": {"tested_on": "Streptococcus agalacticae", "assay": "MIC, microbroth dilution method", "conditions": "48 h", "protocol": "as §1"}, "[19]": {"tested_on": "Streptococcus mutans", "assay": "MIC, microbroth dilution method", "conditions": "48 h", "protocol": "as §1"}, "[20]": {"tested_on": "Bacillus subtilis (spores)", "assay": "MIC, microbroth dilution method (spore germination)", "conditions": "inhibition of spore germination, 48 h", "protocol": "as §1"}, "[21]": {"tested_on": "Clostridium sporogenes (spores)", "assay": "MIC, microbroth dilution method (spore germination)", "conditions": "inhibition of spore germination, 48 h", "protocol": "as §1"}, "[22]": {"tested_on": "Listeria monocytogenes EGDe", "assay": "Membrane permeabilization by PI uptake during treatment", "protocol": "Membrane permeabilization was determined through following the change in fluorescence of a dye, propidium iodide (“PI”). PI is unable to pass through the cell membrane unless the membrane has been physically compromised. Once inside the cell, the intercalation of the PI with the DNA of the cell causes the fluorescent properties of the dye to change. This change in fluorescence can be measured. Therefore, an uptake of PI indicates an increase in membrane permeabilization.\nFIGS. 6A includes a graph that illustrates the amount of membrane permeabilization in response to SP 25A and RLs. Membrane permeabilization was determined by the increase in fluorescence (RFU) with PI uptake during treatment of L. monocytogenes with SP 25A and RLs over a period of 120 min.\nListeria monocytogenes EGDe was thawed and subcultured twice at 37° C. in brain heart infusion broth (BHI) (DIFCO, Franklin Lanes, N.J.). […]\nTotal RNA was extracted from a 1.8 mL culture immediately before treating the cells with SP 25A and RLs (T0), after 30 min (T30), and at 120 min (T120) of exposure at 37° C. Simultaneously, the cell density was measured at OD600. Membrane permeabilization was determined by measuring the PI uptake. […] Each well contained five probes for each open reading frame in the entire genome."}}, "note": "Values joined by “and” are separate entries in the source; they are usually repeats but may differ in a detail not shown here. Identical values can stand only once. Where a SMILES comes first, the peptide text is derived from it. Bridges are numbered along the chain shown (N, C = ends). [ ]: non-standard residue; d: D form. The star is where a group is joined. ξ: configuration not given here. Decanoyl(3ξ-OH) = CCCCCCCC(O)CC(=O)*; Dab = NCC[CH](N)C(=O)O; Dhb = C/C=C(\\N)C(=O)O"}
{"molecule": "C/C=C(\\NC(=O)C(C)NC(=O)C(C)NC(=O)C(CC(C)C)NC(=O)C(NC(=O)C(C)NC(=O)C(C)NC(=O)C(NC(=O)C1CCCN1C(=O)/C(=C/C)NC(=O)CC(O)CCCCCCC)C(C)C)C(C)C)C(=O)NC(C(=O)N/C(=C\\C)C(=O)NC(C)C(=O)NC(C(=O)NC(C)C(=O)NC(C)C(=O)N/C(=C\\C)C(=O)NC1C(=O)NC(CO)C(=O)NC(C)C(=O)NC(C(C)C)C(=O)NC(C)C(=O)NC(CCN)C(=O)NC(CCN)C(=O)NC(Cc2ccc(O)cc2)C(=O)OC1C)C(C)C)C(C)C", "note": "(centres unmarked) [SP 25A, syringopeptin 25A] ({Decanoyl(3ξ-OH)}-[Dhb]PVAAVLAA[Dhb]V[Dhb]AVAA[Dhb]TSAVA[Dab][Dab]Y; ester 18-C; configuration not given here)", "values": [{"measurement": "MIC", "setting": "[1]", "value": ">50", "unit": "µg/mL"}, {"measurement": "MIC", "setting": "[2]", "value": 4, "unit": "µg/mL"}, {"measurement": "MIC", "setting": "[3]", "value": 3, "unit": "µg/mL"}, {"measurement": "MIC", "setting": "[4]", "value": 4, "unit": "µg/mL"}, {"measurement": "MIC", "setting": "[5]", "value": ">50", "unit": "µg/mL"}, {"measurement": "MIC", "setting": "[6]", "value": 4, "unit": "µg/mL"}, {"measurement": "MIC", "setting": "[7]", "value": ">50", "unit": "µg/mL"}, {"measurement": "MIC", "setting": "[8]", "value": ">50", "unit": "µg/mL"}, {"measurement": "MIC", "setting": "[9]", "value": ">50", "unit": "µg/mL"}, {"measurement": "MIC", "setting": "[10]", "value": 4, "unit": "µg/mL"}, {"measurement": "MIC", "setting": "[11]", "value": ">50", "unit": "µg/mL"}, {"measurement": "MIC", "setting": "[12]", "value": 8, "unit": "µg/mL"}, {"measurement": "MIC", "setting": "[13]", "value": 16, "unit": "µg/mL"}, {"measurement": "MIC", "setting": "[14]", "value": 4, "unit": "µg/mL"}, {"measurement": "MIC", "setting": "[15]", "value": 3, "unit": "µg/mL"}, {"measurement": "MIC", "setting": "[16]", "value": 4, "unit": "µg/mL"}, {"measurement": "MIC", "setting": "[17]", "value": ">50", "unit": "µg/mL"}, {"measurement": "MIC", "setting": "[18]", "value": 8, "unit": "µg/mL"}, {"measurement": "MIC", "setting": "[19]", "value": 4, "unit": "µg/mL"}, {"measurement": "MIC", "setting": "[20]", "value": 4, "unit": "µg/mL"}, {"measurement": "MIC", "setting": "[21]", "value": 4, "unit": "µg/mL"}, {"measurement": "increase in membrane permeabilization (PI uptake)", "setting": "[22]; L. monocytogenes EGDe, 3 μg/mL SP 25A, after 30 min", "value": "~2% and 2.6%"}, {"measurement": "PI uptake (membrane permeabilization)", "setting": "[22]; L. monocytogenes, sub-MIC doses, over 120 min", "value": "did not"}]}
